# Test results reported in US10689705B2, “FGFR3 fusion gene and pharmaceutical drug targeting same” (Chugai Seiyaku Kabushiki Kaisha, priority 2012, dated 2020).
# Tested on: colon cancer-derived cell line HCT116;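 note: proliferation measured with WST-8, IC50 derived by least-squares fitting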
# Assay: cells
# Settings: Homo sapiens, HCT-116, 96 h, read-out: HCT116 (CRC) IC50
row,SMILES,IC50 [µM]
1,Cc1nc2ccc(-n3ncc(C(=O)c4cc5ccc(C6CCN(C)CC6)cc5[nH]4)c3N)cc2[nH]1 [Compound 2],2.7
2,Cc1nc2cc(-n3ncc(C(=O)c4cc5ccc(CN6CCOC[C@@H]6C)cc5[nH]4)c3N)ccc2[nH]1 [Compound 3],2.9
3,Cc1nc2ccc(-n3ncc(C(=O)c4cc5cc(CN6CCCC(F)C6)ccc5[nH]4)c3N)cc2[nH]1 (stereo not drawn) [Compound 4],9.5
4,Cc1nc2ccc(-n3ncc(C(=O)c4cc5cc(CN6C(C)CCC6C)ccc5[nH]4)c3N)cc2[nH]1 (stereo not drawn) [Compound 5],11
5,Cc1nc2cc(-n3ncc(C(=O)c4cc5ccc(OCC6(C)COC6)cc5[nH]4)c3N)ccc2[nH]1 [Compound 6],12
6,COCCN(CCOC)Cc1ccc2cc(C(=O)c3cnn(-c4ccc5[nH]c(C)nc5c4)c3N)[nH]c2c1 [Compound 8],11
7,Cc1nc2cc(-n3ncc(C(=O)c4cc5ccc(OCCN6CCN(C)CC6)cc5[nH]4)c3N)ccc2[nH]1 [Compound 9],6.3
8,Cc1nc2ccc(-n3ncc(C(=O)c4cc5ccc(C#N)cc5[nH]4)c3N)cc2[nH]1 [Compound 10],> 50
9,Cc1nc2ccc(-n3ncc(C(=O)c4cc5cc(C6CCN(C(C)C)CC6)ccc5[nH]4)c3N)cc2[nH]1 [Compound 11],5.7
10,Cc1nc2cc(-n3ncc(C(=O)c4cc5ccc(C6CC6)cc5[nH]4)c3N)ccc2[nH]1 [Compound 12],7.2
11,Cc1nc2ccc(-n3ncc(C(=O)c4cc5ccc(-c6cccs6)cc5[nH]4)c3N)cc2[nH]1 [Compound 13],0.39
12,Cc1nc2cc(-n3ncc(C(=O)c4cc5cc6c(cc5[nH]4)OCCO6)c3N)ccc2[nH]1 [Compound 14],3.1
13,Cc1nc2cc(-n3ncc(C(=O)c4cc5ccccc5[nH]4)c3N)c(F)cc2[nH]1 [Compound 15],19
14,CCCCc1ccc2cc(C(=O)c3cnn(-c4ccc5nc(C)[nH]c5c4)c3N)[nH]c2c1 [Compound 16],17
15,Cc1nc2ccc(-n3ncc(C(=O)c4cc5cc(C6CCN(C7CCCC7)CC6)ccc5[nH]4)c3N)cc2[nH]1 [Compound 17],3.8
16,COc1ccc2cc(C(=O)c3cnn(-c4ccc5[nH]c(C)nc5c4)c3N)[nH]c2c1 [Compound 18],11
17,C#CCN(C)Cc1ccc2cc(C(=O)c3cnn(-c4ccc5[nH]c(C)nc5c4)c3N)[nH]c2c1 [Compound 19],2.5
18,Cc1nc2cc(-n3ncc(C(=O)c4cc5ccc(-c6ccc(N7CCOCC7)nc6)cc5[nH]4)c3N)ccc2[nH]1 [Compound 20],> 50
19,Cc1nc2cc(-n3ncc(C(=O)c4cc5ccc(OC6COC6)cc5[nH]4)c3N)ccc2[nH]1 [Compound 21],21
20,Cc1nc2cc(-n3ncc(C(=O)c4cc5ccc(I)cc5[nH]4)c3N)ccc2[nH]1 [Compound 22],1.2
21,CN1CCC(c2ccc3[nH]c(C(=O)c4cnn(-c5ccc6nc(C(F)F)[nH]c6c5)c4N)cc3c2)CC1 [Compound 23],10
22,Cc1nc2cc(-n3ncc(C(=O)c4cc5ccc(-c6cnn(C)c6)cc5[nH]4)c3N)ccc2[nH]1 [Compound 24],> 50

row,SMILES,IC50 [µM]
1,COCCOc1ccc2[nH]c(C(=O)c3cnn(-c4ccc5[nH]c(C)nc5c4)c3N)cc2c1 [Compound 25],> 100
2,Cc1nc2cc(-n3ncc(C(=O)c4cc5ccc(-c6ccc(F)cn6)cc5[nH]4)c3N)ccc2[nH]1 [Compound 26],11
3,Cc1nc2ccc(-n3ncc(C(=O)c4cc5ccc(CO)cc5[nH]4)c3N)cc2[nH]1 [Compound 27],25
4,Cc1nc2ccc(-n3ncc(C(=O)c4cc5cc(-c6cccnc6)ccc5[nH]4)c3N)cc2[nH]1 [Compound 28],21
5,Cc1cc(C)c2cc(C(=O)c3cnn(-c4ccc5[nH]c(C)nc5c4)c3N)[nH]c2c1 [Compound 29],8.5
6,CSc1ccc2cc(C(=O)c3cnn(-c4ccc5[nH]c(C)nc5c4)c3N)[nH]c2c1 [Compound 30],13
7,Cc1nc2cc(-n3ncc(C(=O)c4cc5cc(C6CCN(C(C)C)CC6)c(C(F)(F)F)cc5[nH]4)c3N)ccc2[nH]1 [Compound 31],2
8,Cc1nc2ccc(-n3ncc(C(=O)c4cc5cc(C6=CCNCC6)ccc5[nH]4)c3N)cc2[nH]1 [Compound 32],8.7
9,Cc1nc2cc(-n3ncc(C(=O)c4cc5cc(C(C)(C)C)ccc5[nH]4)c3N)ccc2[nH]1 [Compound 33],4.4
10,Cc1nc2cc(-n3ncc(C(=O)c4cc5ccc(-c6cncc(S(C)(=O)=O)c6)cc5[nH]4)c3N)ccc2[nH]1 [Compound 35],7.8
11,Cc1nc2ccc(-n3ncc(C(=O)c4[nH]c5ccccc5c4F)c3N)cc2[nH]1 [Compound 36],4.8
12,COc1cc(OC)c2cc(C(=O)c3cnn(-c4ccc5[nH]c(C)nc5c4)c3N)[nH]c2c1 [Compound 37],8.9
13,CCCCOc1ccc2[nH]c(C(=O)c3cnn(-c4ccc5[nH]c(C)nc5c4)c3N)cc2c1 [Compound 38],6.1
14,Cc1nc2cc(-n3ncc(C(=O)c4cc5cc(OCC6CC6)ccc5[nH]4)c3N)ccc2[nH]1 [Compound 39],11
15,Cc1nc2cc(-n3ncc(C(=O)c4cc5ncccc5[nH]4)c3N)ccc2[nH]1 [Compound 40],19
16,Cc1ccc(-c2ccc3cc(C(=O)c4cnn(-c5ccc6[nH]c(C)nc6c5)c4N)[nH]c3c2)cn1 [Compound 41],> 20
17,Cc1nc2cc(-n3ncc(C(=O)c4cc5c(C)cccc5[nH]4)c3N)ccc2[nH]1 [Compound 42],15
18,COc1ncccc1-c1ccc2cc(C(=O)c3cnn(-c4ccc5[nH]c(C)nc5c4)c3N)[nH]c2c1 [Compound 43],> 50
19,Cc1nc2cc(-n3ncc(C(=O)c4cc5ccc(Br)cc5[nH]4)c3N)ccc2[nH]1 [Compound 44],10
20,Cc1nc2cc(-n3ncc(C(=O)c4cc5ccc(OCCN6CCOCC6)cc5[nH]4)c3N)ccc2[nH]1 [Compound 45],9.4
21,Cc1nc2cc(-n3ncc(C(=O)c4cc5cc(CN6CCN(S(C)(=O)=O)CC6)ccc5[nH]4)c3N)ccc2[nH]1 [Compound 47],14
22,Cc1nc2cc(-n3ncc(C(=O)c4cc5ccc(O)cc5[nH]4)c3N)ccc2[nH]1 [Compound 48],37

row,SMILES,IC50 [µM]
1,Cc1nc2ccc(-n3ncc(C(=O)c4cc5ccc(Cl)cc5[nH]4)c3N)cc2[nH]1 [Compound 50],34
2,COc1ccccc1-c1ccc2cc(C(=O)c3cnn(-c4ccc5[nH]c(C)nc5c4)c3N)[nH]c2c1 [Compound 51],5.1
3,Cc1nc2cc(-n3ncc(C(=O)c4cc5ccc(-c6ccc(C(F)(F)F)cn6)cc5[nH]4)c3N)ccc2[nH]1 [Compound 52],10
4,Cc1nc2cc(-n3ncc(C(=O)c4cc5cc6c(cc5[nH]4)OC(F)(F)O6)c3N)ccc2[nH]1 [Compound 53],> 20
5,Cc1nc2cc(-n3ncc(C(=O)c4cc5cc(C(=O)N6CCC(N7CCCCC7)CC6)ccc5[nH]4)c3N)ccc2[nH]1 [Compound 54],> 20
6,Cc1nc2ccc(-n3ncc(C(=O)c4cc5cc(C6CCNCC6)c(F)cc5[nH]4)c3N)cc2[nH]1 [Compound 55],16
7,Cc1nc2cc(-n3ncc(C(=O)c4cc5c(OC(C)C)cccc5[nH]4)c3N)ccc2[nH]1 [Compound 56],19
8,Cc1nc2cc(-n3ncc(C(=O)c4cc5cc(C(=O)N6CCN(CC(F)(F)F)CC6)ccc5[nH]4)c3N)ccc2[nH]1 [Compound 57],> 20
9,COc1cc2[nH]c(C(=O)c3cnn(-c4ccc5[nH]c(C)nc5c4)c3N)cc2cc1Cl [Compound 58],12
10,Cc1nc2cc(-n3ncc(C(=O)c4cc5ccc(OCc6ccccc6)cc5[nH]4)c3N)ccc2[nH]1 [Compound 59],3.3
11,Cc1nc2cc(-n3ncc(C(=O)c4cc5cc(C(=O)N6CCCC(F)(F)C6)ccc5[nH]4)c3N)ccc2[nH]1 [Compound 60],17
12,Cc1nc2cc(-n3ncc(C(=O)c4cc5cc(SC(F)(F)F)ccc5[nH]4)c3N)ccc2[nH]1 [Compound 61],9.1
13,Cc1nc2cc(-n3ncc(C(=O)c4cc5cc(F)c(C(F)(F)F)cc5[nH]4)c3N)ccc2[nH]1 [Compound 62],1.7
14,C#Cc1cccc2[nH]c(C(=O)c3cnn(-c4ccc5[nH]c(C)nc5c4)c3N)cc12 [Compound 63],13
15,Cc1nc2cc(-n3ncc(C(=O)c4cc5ccc(-c6ccc(F)cc6)cc5[nH]4)c3N)ccc2[nH]1 [Compound 64],1.2
16,Cc1nc2cc(-n3ncc(C(=O)c4cc5cc(-n6ccnc6)ccc5[nH]4)c3N)ccc2[nH]1 [Compound 65],23
17,Cc1nc2cc(-n3ncc(C(=O)c4cc5ccc(NS(C)(=O)=O)cc5[nH]4)c3N)ccc2[nH]1 [Compound 66],> 50
18,Cc1nc2cc(-n3ncc(C(=O)c4cc5ccc(OC6CCOCC6)cc5[nH]4)c3N)ccc2[nH]1 [Compound 67],7.3
19,Cc1nc2cc(-n3ncc(C(=O)c4cc5cc(C(F)(F)F)ccc5[nH]4)c3N)ccc2[nH]1 [Compound 68],> 2
20,Cc1nc2cc(-n3ncc(C(=O)c4cc5cc(Oc6ccccc6)ccc5[nH]4)c3N)ccc2[nH]1 [Compound 69],4.3
21,Cc1nc2cc(-n3ncc(C(=O)c4cc5cc(F)c(Br)cc5[nH]4)c3N)ccc2[nH]1 [Compound 70],9
22,Cc1nc2cc(-n3ncc(C(=O)c4cc5cc(Cc6ccccc6)ccc5[nH]4)c3N)ccc2[nH]1 [Compound 71],3.8

# Tested on: SW780
# Assay: Cell proliferation inhibition, WST-8, four days (Example 3)
# Format: cell-based
# Settings: Homo sapiens, SW780, 96 h, fusion polypeptide expressing
# Method: (§1) IC50 was calculated using the least-square method.
row,IC50 [µM],SMILES
1,0.069,"CCN(CC)CCCCNc1ncc2cc(-c3cc(OC)cc(OC)c3)c(NC(=O)NC(C)(C)C)nc2n1 [COMPOUND B, PD173074]"

# Tested on: RT112/84
# Assay: as above
# Format: cell-based
# Settings: Homo sapiens, RT112/84, 96 h, fusion polypeptide expressing
# Method: as §1
row,SMILES,IC50 [µM]
1,"CCN(CC)CCCCNc1ncc2cc(-c3cc(OC)cc(OC)c3)c(NC(=O)NC(C)(C)C)nc2n1 [COMPOUND B, PD173074]",0.014

# Tested on: UM-UC-14
# Assay: as above
# Format: cell-based
# Settings: Homo sapiens, UMUC14, 96 h, mutated type FGFR, no fusion
# Method: as §1
row,SMILES,IC50 [µM]
1,"CCN(CC)CCCCNc1ncc2cc(-c3cc(OC)cc(OC)c3)c(NC(=O)NC(C)(C)C)nc2n1 [COMPOUND B, PD173074]",0.01

# Tested on: HT-1376
# Assay: as above
# Format: cell-based
# Settings: Homo sapiens, HT-1376, 96 h, does not express FGFR3
# Method: as §1
row,IC50 [µM],SMILES
1,11,"CCN(CC)CCCCNc1ncc2cc(-c3cc(OC)cc(OC)c3)c(NC(=O)NC(C)(C)C)nc2n1 [COMPOUND B, PD173074]"

# Tested on: BFTC-905
# Assay: as above
# Format: cell-based
# Settings: Homo sapiens, BFTC-905, 96 h, wild-type FGFR, no fusion
# Method: as §1
row,SMILES,IC50 [µM]
1,"CCN(CC)CCCCNc1ncc2cc(-c3cc(OC)cc(OC)c3)c(NC(=O)NC(C)(C)C)nc2n1 [COMPOUND B, PD173074]",14

# Tested on: RT4
# Assay: as above
# Format: cell-based
# Settings: Homo sapiens, RT-4, 96 h, fusion polypeptide expressing
# Method: as §1
row,SMILES,IC50 [µM]
1,"CCN(CC)CCCCNc1ncc2cc(-c3cc(OC)cc(OC)c3)c(NC(=O)NC(C)(C)C)nc2n1 [COMPOUND B, PD173074]",0.18
